Source: patent US9439432B2, “Phenylisoxazoline-based compound having herbicidal activity and use thereof” (MOGHU RESEARCH CENTER LTD, priority 2011, dated 2016)

Assays:
Type in all cases: in vivo
Corn [1] = test: Pre-emergence treatment, phytotoxicity to corn; settings: 500 g/ha, 4 weeks after spraying, scale 0 to 10 (0: no effects, 10: complete death)
Procedure: (§1) A rectangular plastic pot having a surface area of 300 cm^2 was filled with sandy loam soil and mixed bed soil which were mixed at a ratio of 1:1, and then, barnyardrass (Echinochloa crusgalli), large crabgrass (Digitaria sanguinalis), blackgrass (Alopecurus myosuroides), and annual bluegrass (Poa annua), which are grass weeds, were seeded thereto. In a pot that was prepared as described above, seeds of corn, soybean, cotton, wheat, and rice were seeded. The pots were irrigated, and one day after, chemicals were sprayed thereto. The spraying was performed by using a track sprayer (R&D Sprayer, USA) equipped with a Teejet 8002 (Spraying Systems Co., USA) nozzle, and a spraying amount was adjusted at 300 L/ha. A spraying solution was prepared by dissolving test materials or references in acetone and adding the same amount of 0.2%(v/v) tween 20 aqueous solution thereto. Application rates were 500, 250, 125, and 62.5 g/ha. The pots were placed in a greenhouse in which during day, the temperature was maintained at a temperature of 25 to 30° C., and during night, the temperature was maintained at a temperature of 15 to 25° C., and the pots were periodically irrigated. Four weeks after the spraying the test materials or References, effects and phytotoxicity of the respective weeds and crops were evaluated in a scale of 0 to 10 (0: no effects, 10: complete death), and results thereof are shown in Table 4 below.

Soybean [2] = test: Pre-emergence treatment, phytotoxicity to soybean; settings: 500 g/ha, 4 weeks after spraying, scale 0 to 10 (0: no effects, 10: complete death)
Procedure: as §1

Cotton [3] = test: Pre-emergence treatment, phytotoxicity to cotton; settings: 500 g/ha, 4 weeks after spraying, scale 0 to 10 (0: no effects, 10: complete death)
Procedure: as §1

Wheat [4] = test: Pre-emergence treatment, phytotoxicity to wheat; settings: 500 g/ha, 4 weeks after spraying, scale 0 to 10 (0: no effects, 10: complete death)
Procedure: as §1

Rice [5] = test: Pre-emergence treatment, phytotoxicity to rice; settings: 500 g/ha, 4 weeks after spraying, scale 0 to 10 (0: no effects, 10: complete death)
Procedure: as §1

Echinochloa crusgalli [6] = test: Pre-emergence treatment, herbicidal efficacy on barnyardgrass; settings: 4 weeks after spraying
Procedure: as §1

Digitaria sanguinalis [7] = test: Pre-emergence treatment, herbicidal efficacy on large crabgrass; settings: 4 weeks after spraying, scale 0 to 10
Procedure: as §1

Poa annua [8] = test: Pre-emergence treatment, herbicidal efficacy on annual bluegrass; settings: 4 weeks after spraying, scale 0 to 10
Procedure: as §1

Alopecurus myosuroides [9] = test: Pre-emergence treatment, herbicidal efficacy on blackgrass; settings: 4 weeks after spraying, scale 0 to 10
Procedure: as §1

Corn [10] = test: Post-emergence treatment, phytotoxicity to corn; settings: post-emergence (about 3 leaf stage), 1,000 g/ha, 4 weeks after spraying, scale 0 to 10 (0: no effects, 10: complete death)
Procedure: as §1
(§2) Pots containing crops and weeds were prepared in the same manner as in Example 7, and then, in the second week in which crops and weeds entered into about 3 leaf stage, the test materials and the references were sprayed thereto in the same manner as described above. The rates were 1,000, 500, 250, and 125 g/ha. Four weeks after the spraying of the test materials or the references, herbicidal efficacy and phytotoxicity to the respective weeds and crops were evaluated in a scale of 0 to 10 (0: no effects, 10: complete death).

Soybean [11] = test: Post-emergence treatment, phytotoxicity to soybean; settings: post-emergence (about 3 leaf stage), 1,000 g/ha, 4 weeks after spraying, scale 0 to 10 (0: no effects, 10: complete death)
Procedure: as §1, §2

Cotton [12] = test: Post-emergence treatment, phytotoxicity to cotton; settings: post-emergence (about 3 leaf stage), 1,000 g/ha, 4 weeks after spraying, scale 0 to 10 (0: no effects, 10: complete death)
Procedure: as §1, §2

Wheat [13] = test: Post-emergence treatment, phytotoxicity to wheat; settings: post-emergence (about 3 leaf stage), 1,000 g/ha, 4 weeks after spraying, scale 0 to 10 (0: no effects, 10: complete death)
Procedure: as §1, §2

Rice [14] = test: Post-emergence treatment, phytotoxicity to rice; settings: post-emergence (about 3 leaf stage), 1,000 g/ha, 4 weeks after spraying, scale 0 to 10 (0: no effects, 10: complete death)
Procedure: as §1, §2

Echinochloa crusgalli [15] = test: Post-emergence treatment, herbicidal efficacy on barnyardgrass; settings: 4 weeks after spraying, scale 0 to 10
Procedure: as §1, §2

Digitaria sanguinalis [16] = test: Post-emergence treatment, herbicidal efficacy on large crabgrass; settings: 4 weeks after spraying, scale 0 to 10
Procedure: as §1, §2

Poa annua [17] = test: Post-emergence treatment, herbicidal efficacy on annual bluegrass; settings: 4 weeks after spraying, scale 0 to 10
Procedure: as §1, §2

Alopecurus myosuroides [18] = test: Post-emergence treatment, herbicidal efficacy on blackgrass; settings: 4 weeks after spraying, scale 0 to 10
Procedure: as §1, §2

[19] = 500 g/ha, scale 0 to 10 (0: no effects, 10: complete death)

For Cc1ccccc1C1=NOC(C)(COCc2ccccc2F)C1 (stereo not drawn) [Reference D], which “Phytotoxicity, Corn” value (Corn [1]) is on record?
Its value is 0.

And the “Phytotoxicity, Soybean” value (Soybean [2])?
Its value is 0.

And the “Phytotoxicity, Cotton” value (Cotton [3])?
Its value is 0.

And the “Phytotoxicity, Wheat” value (Wheat [4])?
Its value is 0.

And the “Phytotoxicity, Rice” value (Rice [5])?
Its value is 0.

And the “Herbicidal efficacy, Echinochloa crusgalli” value (Echinochloa crusgalli [6]; 62.5 g/ha, scale 0 to 10)?
Its value is 1.

And the “Herbicidal efficacy, Echinochloa crusgalli” value (Echinochloa crusgalli [6]; 125 g/ha, scale 0 to 10)?
Its value is 3.

And the “Herbicidal efficacy, Echinochloa crusgalli” value (Echinochloa crusgalli [6]; 250 g/ha, scale 0 to 10)?
The value was 6.

What about the “Herbicidal efficacy, Echinochloa crusgalli” value (Echinochloa crusgalli [6]; [19]) of the same molecule?
Its value is 10.

And the “Herbicidal efficacy, Digitaria sanguinalis” value (Digitaria sanguinalis [7]; 62.5 g/ha)?
Its value is 0.

What about the “Herbicidal efficacy, Digitaria sanguinalis” value (Digitaria sanguinalis [7]; 125 g/ha) of the same molecule?
Its value is 2.

What about the “Herbicidal efficacy, Digitaria sanguinalis” value (Digitaria sanguinalis [7]; 250 g/ha) of the same molecule?
Its value is 6.

And the “Herbicidal efficacy, Digitaria sanguinalis” value (Digitaria sanguinalis [7]; 500 g/ha)?
The value was 10.

What about the “Herbicidal efficacy, Poa annua” value (Poa annua [8]; 62.5 g/ha) of the same molecule?
The value was 0.

And the “Herbicidal efficacy, Poa annua” value (Poa annua [8]; 125 g/ha)?
Its value is 2.

What about the “Herbicidal efficacy, Poa annua” value (Poa annua [8]; 250 g/ha) of the same molecule?
Its value is 5.

What about the “Herbicidal efficacy, Poa annua” value (Poa annua [8]; 500 g/ha) of the same molecule?
Its value is 8.

What about the “Herbicidal efficacy, Alopecurus myosuroides” value (Alopecurus myosuroides [9]; 62.5 g/ha) of the same molecule?
The value was 0.

And the “Herbicidal efficacy, Alopecurus myosuroides” value (Alopecurus myosuroides [9]; 125 g/ha)?
Its value is 0.

And the “Herbicidal efficacy, Alopecurus myosuroides” value (Alopecurus myosuroides [9]; 250 g/ha)?
The value was 3.

What about the “Herbicidal efficacy, Alopecurus myosuroides” value (Alopecurus myosuroides [9]; 500 g/ha) of the same molecule?
The value was 9.

What about the “Phytotoxicity, Corn” value (Corn [10]) of the same molecule?
Its value is 0.

And the “Phytotoxicity, Soybean” value (Soybean [11])?
Its value is 0.

What about the “Phytotoxicity, Cotton” value (Cotton [12]) of the same molecule?
The value was 0.

What about the “Phytotoxicity, Wheat” value (Wheat [13]) of the same molecule?
The value was 0.

What about the “Phytotoxicity, Rice” value (Rice [14]) of the same molecule?
Its value is 0.

And the “Herbicidal efficacy, Echinochloa crusgalli” value (Echinochloa crusgalli [15]; post-emergence, 125 g/ha)?
The value was 0.

What about the “Herbicidal efficacy, Echinochloa crusgalli” value (Echinochloa crusgalli [15]; post-emergence, 250 g/ha) of the same molecule?
The value was 0.

And the “Herbicidal efficacy, Echinochloa crusgalli” value (Echinochloa crusgalli [15]; post-emergence, 500 g/ha)?
Its value is 1.

What about the “Herbicidal efficacy, Echinochloa crusgalli” value (Echinochloa crusgalli [15]; post-emergence, 1,000 g/ha) of the same molecule?
Its value is 4.

And the “Herbicidal efficacy, Digitaria sanguinalis” value (Digitaria sanguinalis [16]; post-emergence, 125 g/ha)?
The value was 0.

What about the “Herbicidal efficacy, Digitaria sanguinalis” value (Digitaria sanguinalis [16]; post-emergence, 250 g/ha) of the same molecule?
The value was 0.

And the “Herbicidal efficacy, Digitaria sanguinalis” value (Digitaria sanguinalis [16]; post-emergence, 500 g/ha)?
Its value is 4.

And the “Herbicidal efficacy, Digitaria sanguinalis” value (Digitaria sanguinalis [16]; post-emergence, 1,000 g/ha)?
Its value is 7.

And the “Herbicidal efficacy, Poa annua” value (Poa annua [17]; post-emergence, 125 g/ha)?
Its value is 0.

What about the “Herbicidal efficacy, Poa annua” value (Poa annua [17]; post-emergence, 250 g/ha) of the same molecule?
Its value is 0.

And the “Herbicidal efficacy, Poa annua” value (Poa annua [17]; post-emergence, 500 g/ha)?
The value was 2.

And the “Herbicidal efficacy, Poa annua” value (Poa annua [17]; post-emergence, 1,000 g/ha)?
The value was 5.

What about the “Herbicidal efficacy, Alopecurus myosuroides” value (Alopecurus myosuroides [18]; post-emergence, 125 g/ha) of the same molecule?
Its value is 0.

And the “Herbicidal efficacy, Alopecurus myosuroides” value (Alopecurus myosuroides [18]; post-emergence, 250 g/ha)?
The value was 0.

And the “Herbicidal efficacy, Alopecurus myosuroides” value (Alopecurus myosuroides [18]; post-emergence, 500 g/ha)?
Its value is 3.

What about the “Herbicidal efficacy, Alopecurus myosuroides” value (Alopecurus myosuroides [18]; post-emergence, 1,000 g/ha) of the same molecule?
Its value is 4.

What does the source list for Cc1ccccc1C1=NOC(C)(COCc2c(F)cccc2Cl)C1 (stereo not drawn) [Reference E]?
Phytotoxicity, Corn (Corn [1]): 0; Phytotoxicity, Soybean (Soybean [2]): 0; Phytotoxicity, Cotton (Cotton [3]): 0; Phytotoxicity, Wheat (Wheat [4]): 0; Phytotoxicity, Rice (Rice [5]): 0; Herbicidal efficacy, Echinochloa crusgalli (Echinochloa crusgalli [6]; 62.5 g/ha, scale 0 to 10): 2; Herbicidal efficacy, Echinochloa crusgalli (Echinochloa crusgalli [6]; 125 g/ha, scale 0 to 10): 5; Herbicidal efficacy, Echinochloa crusgalli (Echinochloa crusgalli [6]; 250 g/ha, scale 0 to 10): 8; Herbicidal efficacy, Echinochloa crusgalli (Echinochloa crusgalli [6]; [19]): 10; Herbicidal efficacy, Digitaria sanguinalis (Digitaria sanguinalis [7]; 62.5 g/ha): 0; Herbicidal efficacy, Digitaria sanguinalis (Digitaria sanguinalis [7]; 125 g/ha): 5; Herbicidal efficacy, Digitaria sanguinalis (Digitaria sanguinalis [7]; 250 g/ha): 9; Herbicidal efficacy, Digitaria sanguinalis (Digitaria sanguinalis [7]; 500 g/ha): 10; Herbicidal efficacy, Poa annua (Poa annua [8]; 62.5 g/ha): 2; Herbicidal efficacy, Poa annua (Poa annua [8]; 125 g/ha): 5; Herbicidal efficacy, Poa annua (Poa annua [8]; 250 g/ha): 9; Herbicidal efficacy, Poa annua (Poa annua [8]; 500 g/ha): 10; Herbicidal efficacy, Alopecurus myosuroides (Alopecurus myosuroides [9]; 62.5 g/ha): 0; Herbicidal efficacy, Alopecurus myosuroides (Alopecurus myosuroides [9]; 125 g/ha): 0; Herbicidal efficacy, Alopecurus myosuroides (Alopecurus myosuroides [9]; 250 g/ha): 4; Herbicidal efficacy, Alopecurus myosuroides (Alopecurus myosuroides [9]; 500 g/ha): 9; Phytotoxicity, Corn (Corn [10]): 3; Phytotoxicity, Soybean (Soybean [11]): 1; Phytotoxicity, Cotton (Cotton [12]): 3; Phytotoxicity, Wheat (Wheat [13]): 0; Phytotoxicity, Rice (Rice [14]): 0; Herbicidal efficacy, Echinochloa crusgalli (Echinochloa crusgalli [15]; post-emergence, 125 g/ha): 0; Herbicidal efficacy, Echinochloa crusgalli (Echinochloa crusgalli [15]; post-emergence, 250 g/ha): 2; Herbicidal efficacy, Echinochloa crusgalli (Echinochloa crusgalli [15]; post-emergence, 500 g/ha): 5; Herbicidal efficacy, Echinochloa crusgalli (Echinochloa crusgalli [15]; post-emergence, 1,000 g/ha): 6; Herbicidal efficacy, Digitaria sanguinalis (Digitaria sanguinalis [16]; post-emergence, 125 g/ha): 0; Herbicidal efficacy, Digitaria sanguinalis (Digitaria sanguinalis [16]; post-emergence, 250 g/ha): 1; Herbicidal efficacy, Digitaria sanguinalis (Digitaria sanguinalis [16]; post-emergence, 500 g/ha): 6; Herbicidal efficacy, Digitaria sanguinalis (Digitaria sanguinalis [16]; post-emergence, 1,000 g/ha): 7; Herbicidal efficacy, Poa annua (Poa annua [17]; post-emergence, 125 g/ha): 0; Herbicidal efficacy, Poa annua (Poa annua [17]; post-emergence, 250 g/ha): 2; Herbicidal efficacy, Poa annua (Poa annua [17]; post-emergence, 500 g/ha): 6; Herbicidal efficacy, Poa annua (Poa annua [17]; post-emergence, 1,000 g/ha): 7; Herbicidal efficacy, Alopecurus myosuroides (Alopecurus myosuroides [18]; post-emergence, 125 g/ha): 0; Herbicidal efficacy, Alopecurus myosuroides (Alopecurus myosuroides [18]; post-emergence, 250 g/ha): 0; Herbicidal efficacy, Alopecurus myosuroides (Alopecurus myosuroides [18]; post-emergence, 500 g/ha): 2; Herbicidal efficacy, Alopecurus myosuroides (Alopecurus myosuroides [18]; post-emergence, 1,000 g/ha): 4
